Assay results from patent US20260088124A1, “TRANSCRIPTOMIC CLOCKS OF BIOLOGICAL AGE AND LIFESPAN” (The Brigham and Women's Hospital, Inc., priority 2022, published 2026).

Key:
[1] = test system: young UM-HET3 male mice; test: Transcriptomic clock of expected maximum lifespan applied to liver and kidney of mice given compounds for 1 month; assay type: in vivo, mouse; conditions: 1 month treatment, data pooled across tissues, adjusted p-value <0.05, FIG. 6E
Source text: To examine if longevity of rodents can be predicted based on gene expression data, we used 1,030 liver samples of mice and rats with known maximum lifespan to construct transcriptomic clock of expected lifespan.
To test if the constructed clock can be used to identify new longevity interventions, we applied it to the liver and kidney samples obtained from young UM-HET3 male mice subjected to 25 different compounds for 1 month together with age-matched controls. These compounds were chosen using a CMAP platform^30 and gene expression signatures of longevity identified in our previous studies^31.

[2] = test system: 25-month-old C57BL/6JNia mice; test: Survival study of old mice with compound added to the diet; assay type: in vivo, mouse; conditions: compound added to diet from 25 months of age; log-rank p-value <0.05; FIGS. 6F-H
[3] = test system: mouse tissues; test: Change of biological age (tAge), lifespan-adjusted multi-tissue transcriptomic clock applied to RNAseq datasets of treated mice (ClockBase); assay type: in vivo; conditions: for effect on biological age (tAge) versus age-matched control mice: statistically significant effect on tAge, FIG. 6A
Source text: Preprocessing of the data prior to applying the clock included filtering of low-expressed genes using soft threshold (genes with less than 5 reads in more than 80% of samples were removed), mapping of gene IDs to the mouse Entrez IDs, RLE normalization (for RNA-seq data), log-transformation, scaling and ranking/YuGene transformation (optionally, for the corresponding clock models). Missing values corresponding to the clock genes not detected in the data were imputed with the average values precalculated during the training of the clock model.
Preprocessed gene expression profiles were used as an input for the clock, and tAges were returned by the model as an output. Differences between tAges of control and treated groups were assessed using linear regression model (for OSKM reprogramming datasets) and independent t-tests (for other applications). When multiple comparisons were assessed, obtained p-values were adjusted with Benjamini-Hochberg method.
To discover candidate interventions that slow down biological aging and extend mammalian lifespan and healthspan, we utilized ClockBase^25 and processed 1,349 publicly available RNAseq datasets corresponding to mouse tissues exposed to various pharmacological, dietary and genetic interventions. For every intervention, we used gene expression data to calculate tAges of subjected mice and compared them with tAges of age-matched control mice. […] In addition to the well-known lifespan-extending interventions, such as rapamycin, they included β3-adrenoceptor agonist CL 316,243^26,27 and the cardiac glycoside ouabain^28.

[4] = test system: 30-month-old mice; test: Healthspan of old mice (gait speed, frailty index); assay type: in vivo, mouse
[5] = test system: aged rodents; conditions: cited from earlier work
[6] = cited from earlier work

| Molecule | predicted effect on expected (maximum) lifespan according to the transcriptomic longevity clock [1] | effect on biological age (tAge) versus age-matched control mice [3] | other results |
| --- | --- | --- | --- |
| COc1ccc(-c2ccc3c(N4CCOC[C@@H]4C)nc(N4CCOC[C@@H]4C)nc3n2)cc1CO [AZD-8055] | predicted to be beneficial for mouse longevity |  | lifespan of old male mice (survival) [2]: significantly extended lifespan |
| C[C@H](Cc1ccc2c(c1)OC(C(=O)[O-])(C(=O)[O-])O2)NC[C@H](O)c1cccc(Cl)c1.[Na+].[Na+] [CL 316,243] |  | decrease in biological age |  |
| COc1ccc(-c2ccc3c(N4CCOCC4)nc(N4C[C@@H](C)O[C@@H](C)C4)nc3n2)cc1CO [KU-0063794] | predicted to be beneficial for mouse longevity |  | frailty index [4]: decreased; gait speed [4]: improved; lifespan of old male mice (survival) [2]: significantly extended lifespan |
| CCCCCCCCCCCCCCCC(=O)OC[C@H](O)[C@H]1OC(=O)C(O)=C1O [ascorbyl-palmitate] | predicted to be beneficial for mouse longevity |  |  |
| C[C@@H]1O[C@@H](O[C@H]2C[C@@H](O)[C@]3(CO)[C@H]4[C@H](O)C[C@]5(C)[C@@H](C6=CC(=O)OC6)CC[C@]5(O)[C@@H]4CC[C@]3(O)C2)[C@H](O)[C@H](O)[C@H]1O [ouabain] |  | decrease in biological age | physical function of aged rodents [5]: improve physical function; reduction of biological age ([3]; 3-month treatment, 24-month-old mice, liver, FIG. 6B): ~20%; senolytic activity [6]: exhibit senolytic activity |
| Cc1onc(-c2ccccc2)c1-c1ccc(S(N)(=O)=O)cc1 [valdecoxib] | predicted to be beneficial for mouse longevity |  |  |
| interleukin 6: interleukin 6 injection |  | increase of biological age |  |
